For orientation: IC50 means the concentration at which inhibition is half-maximal.

Molecules are shown by their SMILES.

Sequence of BCL2 (P10415 whole entry): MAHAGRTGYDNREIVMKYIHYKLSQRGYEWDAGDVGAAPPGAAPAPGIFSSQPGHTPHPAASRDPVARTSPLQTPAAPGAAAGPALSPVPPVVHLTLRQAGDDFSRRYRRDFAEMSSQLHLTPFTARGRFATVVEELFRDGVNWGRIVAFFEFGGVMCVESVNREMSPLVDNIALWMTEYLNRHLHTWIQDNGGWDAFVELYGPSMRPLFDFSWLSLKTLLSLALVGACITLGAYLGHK

The target in the test is BCL2 (Homo sapiens, UniProt P10415). As to the kind of experiment: Biacore SPR solution inhibition assay of BCL-2 binding to peptide derivatized sensor surfaces. The settings on record: SPR competition; 56 nM BCL2 pre-equilibrated with compound one hour; biotinylated BAK, BAD and NOXA peptide surfaces; 25° C. From the text:
The present method includes utility of a Surface plasmon resonance (SPR)-based biosensor (Biacore™ GE Healthcare, Uppsala, Sweden) to characterize BCL-2 inhibitors.
Biacore™ utilizes the phenomenon of surface plasmon resonance (SPR) to detect and measure binding interactions. In a typical Biacore experiment, one of the interacting molecules (ligand) is immobilized on a flexible dextran matrix while the interacting partner (analyte) is allowed to flow across that surface. A binding interaction results in an increase in mass on the sensor surface and a corresponding direct change in the refractive index of the medium in the vicinity of the sensor surface. Changes in refractive index or signal are recorded in resonance units (R.U.) Signal changes due to association and dissociation of complexes are monitored in a non-invasive manner, continuously and in real-time, the results of which are reported in the form of a sensorgram. The SPR assay is configured to examine solution inhibition of BCL-2 binding to peptide derivatized sensor surfaces to generate […] values as a measure of inhibitor potency.
Biacore™ A100 (GE Healthcare, Uppsala, Sweden) was used to conduct all experiments reported herein. Sensor surface preparation and all interaction analyses experiments were performed at 25° C. Reagents were purchased from GE Healthcare. Running buffer containing 10 mM Hepes, pH7.4, 150 mM sodium chloride, 1.25 mM Dithiothreitol, 3% Dimethyl sulfoxide and 0.05% polysorbate 20 were utilized throughout all analyses.
Biotinylated BAK, BAD and NOXA peptides were diluted to 10 nM in running buffer and captured onto a sensor surface pre-derivatized with streptavidin (sensor chip SA) to peptide surface densities in the range 50-100 R.U. Peptide captured surfaces were blocked with 500 μM PEO2-Biotin.
Interaction analyses were performed by first equilibrating each sample within a 6 point three fold compound dilution series in the range 16 μM to 0.004 nM with 56 nM BCL2 for one hour during instrument start-up procedures. Protein compound mixtures were then injected over each peptide surface in parallel for 60 seconds at a flow-rate of 30 μL/min. 56 nM BCL2 control samples were also prepared and run at regular intervals during the assay. Surface regeneration was performed at the end of each analysis cycle by two 30 second injections of 10 mM Glycine, pH 2.5, 1M Sodium Chloride, 0.05% polysorbate 20. Samples and control compound samples were run in duplicate and controls are also run at regular intervals during the assay to monitor surface and assay performance.
Data analyses are carried out using Biacore™ A100 evaluation software v1.1 to validate assay quality. Binding level report points were used relative to BCL2 control samples to calculate % inhibition values for each compound protein mixture.
For `O=S(=O)(Nc1nc(C(F)(F)F)nc2c1CCN(C1CCN(Cc3ccccc3-c3ccc(Cl)cc3)CC1)C2)c1ccc(N[C@H](CCN2CCOCC2)CSc2ccccc2)c(S(=O)(=O)C(F)(F)F)c1` [Example 68, (R)-N-(7-(1-((4′-chlorobiphenyl-2-yl)methyl)piperidin-4-yl)-2-(trifluoromethyl)-5,6,7,8-tetrahydropyrido[3,4-d]pyrimidin-4-yl)-4-(4-morpholino-1-(phenylthio)butan-2-ylamino)-3-(trifluoromethylsulfonyl)benzenesulfonamide], the IC50 came to 235 nM.
To `CC(c1ccccc1-c1ccc(Cl)cc1)N1CCC(N2CCc3c(ncnc3NS(=O)(=O)c3ccc(N[C@H](CCN(C)C)CSc4ccccc4)c(S(=O)(=O)C(F)(F)F)c3)C2)CC1` (stereo partly drawn) [Example 51, N-(7-(1-(1-(4′-chlorobiphenyl-2-yl)ethyl)piperidin-4-yl)-5,6,7,8-tetrahydropyrido[3,4-d]pyrimidin-4-yl)-4-((R)-4-(dimethylamino)-1-(phenylthio)butan-2-ylamino)-3-(trifluoromethylsulfonyl)benzenesulfonamide] belongs 35 nM; to `O=S(=O)(Nc1ncnc2c1CCN(C1CCN(Cc3ccccc3-c3ccc(Cl)cc3)CC1)C2)c1ccc(N[C@H](CCN2CCCCC2)CSc2ccccc2)c(S(=O)(=O)C(F)(F)F)c1` [Example 30, (R)-N-(7(1-((4′-chlorobiphenyl-2-yl)methyl)piperidin-4-yl)-5,6,7,8-tetrahydropyrido[3,4-d]pyrimidin-4-yl)-4-(l-(phenylthio)-4-(piperidin-1-yl)butan-2-ylamino)-3-(trifluoromethylsulfonyl)benzenesulfonamide], 128 nM.
For `CN1CCN(CC[C@H](CSc2ccccc2F)Nc2ccc(S(=O)(=O)Nc3ncnc4c3CCN(C3CCN(CC5=C(c6ccc(Cl)cc6)CC(C)(C)CC5)CC3)C4)cc2S(=O)(=O)C(F)(F)F)CC1` [Example 55, (R)-N-(7-(1-((2-(4-chlorophenyl)-4,4-dimethylcyclohex-1-enyl)methyl)piperidin-4-yl)-5,6,7,8-tetrahydropyrido[3,4-d]pyrimidin-4-yl)-4-(1-(2-fluorophenylthio)-4-(4-methylpiperazin-1-yl)butan-2-ylamino)-3-(trifluoromethylsulfonyl)benzenesulfonamide], the IC50 was found to be 35 nM.
With `CN(C)CC[C@H](CSc1ccc(Cl)c(Cl)c1)Nc1ccc(S(=O)(=O)Nc2ncnc3c2CCN(C2CCN(Cc4ccccc4-c4ccc(Cl)cc4)CC2)C3)cc1S(=O)(=O)C(F)(F)F` [Example 39, N-{7-[1-(4′-Chloro-biphenyl-2-ylmethyl)-piperidin-4-yl]-5,6,7,8-tetrahydro-pyrido[3,4-d]pyrimidin-4-yl}-4-[(R)-1-(3,4-dichloro-phenylsulfanylmethyl)-3-dimethylamino-propylamino]-3-trifluoromethanesulfonyl-benzenesulfonamide], the IC50 turned out to be 41 nM.
Next, `CCC[C@H](CSc1ccccc1)Nc1ccc(S(=O)(=O)Nc2ncnc3c2CCN(C2CCN(CC4=C(c5ccc(Cl)cc5)CC(C)(C)CC4)CC2)C3)cc1S(=O)(=O)C(F)(F)F` [Example 59, N-(7-(1-((2-(4-chlorophenyl)-4,4-dimethylcyclohex-1-enyl)methyl)piperidin-4-yl)-5,6,7,8-tetrahydropyrido[3,4-d]pyrimidin-4-yl)-4-(1-(phenylthio)pentan-2-ylamino)-3-(trifluoromethylsulfonyl)benzenesulfonamide]: 579 nM; `CN(C)CC[C@H](CSc1ccccc1)Nc1ccc(S(=O)(=O)Nc2ncnc3c2CCN(C2CCN(Cc4ccccc4-c4cccc(Cl)c4)CC2)C3)cc1S(=O)(=O)C(F)(F)F` [Example 97, N-{7-[1-(3′-Chloro-biphenyl-2-ylmethyl)-piperidin-4-yl]-5,6,7,8-tetrahydro-pyrido[3,4-d]pyrimidin-4-yl}-4-((R)-3-dimethylamino-1-phenylsulfanylmethyl-propylamino)-3-trifluoromethanesulfonyl-benzenesulfonamide]: 49 nM.
Next, `COc1ccc(-c2ccc(Cl)cc2)c(CN2CCC(N3CCc4c(ncnc4NS(=O)(=O)c4ccc(N[C@H](CCN(C)C)CSc5ccccc5)c(S(=O)(=O)C(F)(F)F)c4)C3)CC2)c1` [Example 36, (R)-N-(7-(1-((4′-chloro-4-methoxybiphenyl-2-yl)methyl)piperidin-4-yl)-5,6,7,8-tetrahydropyrido[3,4-d]pyrimidin-4-yl)-4-(4-(dimethylamino)-1-(phenylthio)butan-2-ylamino)-3-(trifluoromethylsulfonyl)benzenesulfonamide]: 34 nM.
To `CN(C)CC[C@H](CSc1ccccc1)Nc1ccc(S(=O)(=O)Nc2nnc3n2CCN(C2CCN(Cc4ccccc4-c4ccc(Cl)cc4)CC2)CC3)cc1S(=O)(=O)C(F)(F)F` [Example 93, N-{6-[1-(4′-Chloro-biphenyl-2-ylmethyl)-piperidin-4-yl]-5,6,7,8-tetrahydro-4H-1,2,3a,6-tetraaza-azulen-3-yl}-4-((R)-3-dimethylamino-1-phenyl-sulfanylmethyl-propylamino)-3-trifluoromethanesulfonyl-benzenesulfonamide] belongs 24 nM; to `CN(C)CC[C@H](CSc1ccccc1)Nc1ccc(S(=O)(=O)Nc2ncnc3c2CCN(C2CCN(Cc4ccccc4-c4ccc(Cl)cc4)CC2)C3)cc1C(F)(F)F` [Example 53], 66 nM; to `CCC[C@H](CSc1ccccc1)Nc1ccc(S(=O)(=O)Nc2ncnc3c2CCN(C2CCN(Cc4ccccc4-c4ccc(Cl)cc4)CC2)C3)cc1S(=O)(=O)C(F)(F)F` [Example 43, (R)-N-(7-(1-((4′-chlorobiphenyl-2-yl)methyl)piperidin-4-yl)-5,6,7,8-tetrahydropyrido[3,4-d]pyrimidin-4-yl)-4-(1-(phenylthio)pentan-2-ylamino)-3-(trifluoromethylsulfonyl)benzenesulfonamide], 2420 nM.
For the compound `CC1CC(N2CCn3c(nnc3NS(=O)(=O)c3ccc(N[C@H](CCN4CCOCC4)CSc4ccccc4)c(S(=O)(=O)C(F)(F)F)c3)C2)CCN1Cc1ccccc1-c1ccc(Cl)cc1` (stereo partly drawn) [Example 96, N-{7-[1-(4′-Chloro-biphenyl-2-ylmethyl)-2-methyl-piperidin-4-yl]-5,6,7,8-tetrahydro-[1,2,4]triazolo[4,3-a]pyrazin-3-yl}-4-((R)-3-morpholin-4-yl-1-phenylsulfanylmethyl-propylamino)-3-trifluoromethanesulfonyl-benzenesulfonamide], the IC50 is 144 nM.
On to `[2H]C1(N2CCc3c(nc(C(F)(F)F)nc3NS(=O)(=O)c3ccc(N[C@H](CCN4CCN(C)CC4)CSc4ccccc4F)c(S(=O)(=O)C(F)(F)F)c3)C2)CCN([C@@H](C)c2ccccc2-c2ccc(Cl)cc2)CC1` [Example 74], for which the IC50 came to 41 nM.
With `CC(C1=C(c2ccc(Cl)cc2)CC(C)(C)CC1)N1CCC(N2CCc3c(ncnc3NS(=O)(=O)c3ccc(N[C@H](CCN4CCOCC4)CSc4ccccc4)c(S(=O)(=O)C(F)(F)F)c3)C2)CC1` (stereo partly drawn) [Example 24], the IC50 came to 89 nM.
Next, `CN(C)CC[C@H](COCc1ccccc1)Nc1ccc(S(=O)(=O)Nc2ncnc3c2CCN(C2CCN(Cc4ccccc4-c4ccc(Cl)cc4)CC2)C3)cc1S(=O)(=O)C(F)(F)F` [Example 25, 4-((R)-1-Benzyloxymethyl-3-dimethylamino-propylamino)-N-{7-[1-(4′-chloro-biphenyl-2-ylmethyl)-piperidin-4-yl]-5,6,7,8-tetrahydro-pyrido[3,4-d]pyrimidin-4-yl}-3-trifluoromethanesulfonyl-benzenesulfonamide]: 142 nM.

These data come from US8809352B2, “Sulfonamides as inhibitors of Bcl-2 family proteins for the treatments of cancer” (Novartis AG, priority 2009, dated 2014).
